The values that follow come from publication PMC12221116, “Novel Quinazolinones Active against Multidrug‐Resistant Mycobacterium Tuberculosis: Synthesis, Antimicrobial Evaluation, and in Silico Exploration of Penicillin‐Binding Protein 1A as a Potential Target” (Chemmedchem, 2025).

Holding throughout (assay): microbe, parasite or virus in culture
Common to all, as to format: cell-based, Mycobacterium tuberculosis

Test [1] deals with Mtb IZAK. The conditions noted are these: for MIC: Mycobacterium tuberculosis, read-out: MIC Mtb IZAK.
Test [2] has as its system Mtb MATI. The settings on record: for MIC: Mycobacterium tuberculosis, read-out: MIC Mtb MATI.
Test [3] has as its system Mtb TIAS. The settings on record: for MIC: Mycobacterium tuberculosis, read-out: MIC Mtb TIAS.
Test [4] deals with Mtb SORO. The settings on record: for MIC: Mycobacterium tuberculosis, read-out: MIC Mtb SORO.
Test [5] concerns Mtb TURZ. The conditions noted are these: for MIC: Mycobacterium tuberculosis, read-out: MIC Mtb TURZ.
In test [6] the test system is Mtb YAGY. The conditions noted are these: for MIC: Mycobacterium tuberculosis, read-out: MIC Mtb YAGY.
Test [7] relates to Mtb SORO. The conditions noted are these: for Susceptible/resistant Mtb SORO: CLSI methodology; for MIC: Mycobacterium tuberculosis, read-out: MIC, susceptibility pattern Mtb SORO.
The subject of test [8] is Mtb MATI. The conditions noted are these: for Susceptible/resistant Mtb MATI: CLSI methodology; for MIC: Mycobacterium tuberculosis, read-out: MIC, susceptibility pattern Mtb MATI.
Test [9] deals with Mtb TIAS. The settings on record: for Susceptible/resistant Mtb TIAS: CLSI methodology; for MIC: Mycobacterium tuberculosis, read-out: MIC, susceptibility pattern Mtb TIAS.
In test [10] the test system is Mtb YAGY. The settings on record: for Susceptible/resistant Mtb YAGY: CLSI methodology; for MIC: Mycobacterium tuberculosis, read-out: MIC, susceptibility pattern Mtb YAGY.
Test [11] concerns Mtb TURZ. The settings on record: for Susceptible/resistant Mtb TURZ: CLSI methodology; for MIC: Mycobacterium tuberculosis, read-out: MIC, susceptibility pattern Mtb TURZ.
The test system of test [12] is Mtb IZAK. The conditions noted are these: for Susceptible/resistant Mtb IZAK: CLSI methodology; for MIC: Mycobacterium tuberculosis, read-out: MIC, susceptibility pattern Mtb IZAK.
The mark [13] stands for this setting: drug-resistant clinical isolate.
The mark [14] stands for this setting: mycobacteria growth indicator tube (MGIT), concentration 100 mg/l.

Each structure is given as a SMILES string. Converted amounts (≈) assume the structure as drawn. Where two headings read alike, the source gives them in different places. Bounds are passed on as bounds.

For the compound `Cc1nc2ccccc2c(=O)n1Cc1cccc(Cl)c1` [Compound 6], the “MIC Mtb IZAK” value in test [1] (setting [13]) is greater than 100 µg/mL. Also, the “MIC Mtb MATI” value in test [2] (setting [13]) turned out to be 50 µg/mL (≈ 176 µM). The “MIC Mtb TIAS” value in test [3] (setting [13]) turned out to be 25 µg/mL (≈ 87.8 µM). Moreover, in [4] (setting [13]), the “MIC Mtb SORO” value turned out to be 25 µg/mL (≈ 87.8 µM). For the same compound, the “MIC Mtb TURZ” value in [5] (setting [13]) came to 25 µg/mL (≈ 87.8 µM). In addition, the “MIC Mtb YAGY” value in test [6] (setting [13]) amounted to 12.5 µg/mL (≈ 43.9 µM).
For the compound `COc1ccc(Cn2c(C)nc3cc(Cl)ccc3c2=O)cc1` [Compound 17], the MIC in [1], in test [2], in [3], in [4], in [5] and in [6] was 12.5 µg/mL (≈ 39.7 µM) in each case.
For the compound `Cc1nc2cc(Cl)ccc2c(=O)n1Cc1ccc(F)cc1` [Compound 19], the MIC in test [1] was greater than 50 µg/mL; in test [2], greater than 50 µg/mL; in [3], 12.5 µg/mL (≈ 41.3 µM); in test [4], greater than 50 µg/mL; in test [5], 12.5 µg/mL (≈ 41.3 µM); in test [6] it was 12.5 µg/mL (≈ 41.3 µM).
For the compound `Cc1nc2cc(Cl)ccc2c(=O)n1Cc1cccc(Cl)c1` [Compound 21], the MIC was greater than 100 µg/mL in test [1]; greater than 100 µg/mL in test [2]; 12.5 µg/mL (≈ 39.2 µM) in test [3]; greater than 100 µg/mL in [4]; 12.5 µg/mL (≈ 39.2 µM) in test [5]; 12.5 µg/mL (≈ 39.2 µM) in [6].
Turning to `Cc1nc2cc(Cl)ccc2c(=O)n1Cc1ccc(Cl)c(Cl)c1` [Compound 24], the MIC is greater than 100 µg/mL in test [1]; greater than 100 µg/mL in test [2]; 6.25 µg/mL (≈ 17.7 µM) in [3]; 100 µg/mL (≈ 283 µM) in test [4]; 6.25 µg/mL (≈ 17.7 µM) in test [5]; 6.25 µg/mL (≈ 17.7 µM) in test [6].
Consider `Cc1nc2cc(Cl)ccc2c(=O)n1/N=C/c1ccc(O)c([N+](=O)[O-])c1` [Compound 25], for which the MIC in [1] is greater than 25 µg/mL; in test [2], 12.5 µg/mL (≈ 34.8 µM); in test [3], 25 µg/mL (≈ 69.7 µM); in [4] it was 12.5 µg/mL (≈ 34.8 µM); in test [5], 25 µg/mL (≈ 69.7 µM); in test [6], 6.25 µg/mL (≈ 17.4 µM).
On to `NNC(=O)c1ccncc1` [INH, isoniazid, reference compound], for which, in test [7], the “Susceptible/resistant Mtb SORO” value is “R”. Also, the MIC was 4 µg/mL (≈ 29.2 µM) in test [7]; greater than 8 µg/mL in test [8]; greater than 100 µg/mL in test [1]; greater than 100 µg/mL in test [2]; greater than 100 µg/mL in test [3]; greater than 8 µg/mL in test [9]. The MIC in test [4] was greater than 100 µg/mL; in [5], greater than 100 µg/mL; in [10], 4 µg/mL (≈ 29.2 µM); in test [11], greater than 8 µg/mL; in test [12], 4 µg/mL (≈ 29.2 µM); in [6], greater than 100 µg/mL. In test [8], the “Susceptible/resistant Mtb MATI” value is reported as “R”. Besides, in test [9], the “Susceptible/resistant Mtb TIAS” value is “R”. Further, the “Susceptible/resistant Mtb YAGY” value in [10] is “R”. Further, the “Susceptible/resistant Mtb TURZ” value in test [11] is recorded as “R”. The “Susceptible/resistant Mtb IZAK” value in test [12] was “R”.
Consider `CO[C@H]1/C=C/O[C@@]2(C)Oc3c(C)c(O)c4c(O)c(c(/C=N/N5CCN(C)CC5)c(O)c4c3C2=O)NC(=O)/C(C)=C\C=C\[C@H](C)[C@H](O)[C@@H](C)[C@@H](O)[C@@H](C)[C@H](OC(C)=O)[C@@H]1C` [RIF, rifampicin], for which, in test [7], the “Susceptible/resistant Mtb SORO” value was “S” and the MIC is 0.125 µg/mL (≈ 0.152 µM). Moreover, in test [8], the “Susceptible/resistant Mtb MATI” value was “R” and the MIC was greater than 8 µg/mL. In [9], the “Susceptible/resistant Mtb TIAS” value is “S” and the MIC was found to be 0.125 µg/mL (≈ 0.152 µM). Also, in test [10], the “Susceptible/resistant Mtb YAGY” value is “R” and the MIC came to 8 µg/mL (≈ 9.72 µM). Besides, in test [11], the “Susceptible/resistant Mtb TURZ” value is “R” and the MIC is greater than 8 µg/mL. Besides, in test [12], the “Susceptible/resistant Mtb IZAK” value is “R” and the MIC is greater than 8 µg/mL.
Turning to `NCC[C@H](O)C(=O)N[C@@H]1C[C@H](N)[C@@H](O[C@H]2O[C@H](CN)[C@@H](O)[C@H](O)[C@H]2O)[C@H](O)[C@H]1O[C@H]1O[C@H](CO)[C@@H](O)[C@H](N)[C@H]1O` [amikacin], in test [7], the “Susceptible/resistant Mtb SORO” value is listed as “S” and the MIC stood at 1 µg/mL (≈ 1.71 µM). Moreover, in test [9], the “Susceptible/resistant Mtb TIAS” value is reported as “S” and the MIC is 1 µg/mL (≈ 1.71 µM). Further, in [10], the “Susceptible/resistant Mtb YAGY” value is given as “R” and the MIC was greater than 64 µg/mL. In test [11], the “Susceptible/resistant Mtb TURZ” value was “S” and the MIC is 0.5 µg/mL (≈ 0.854 µM).
As for `CC(C)/N=c1\cc2n(-c3ccc(Cl)cc3)c3ccccc3nc-2cc1Nc1ccc(Cl)cc1` [clofazimine], in test [7], the “Susceptible/resistant Mtb SORO” value is “S” and the MIC is 0.25 µg/mL (≈ 0.528 µM).
As to `CC[C@@H](CO)NCCN[C@@H](CC)CO` [ethambutol], in test [7], the “Susceptible/resistant Mtb SORO” value is recorded as “R” and the MIC turned out to be 2 µg/mL (≈ 9.79 µM). Also, in test [8], the “Susceptible/resistant Mtb MATI” value is recorded as “S” and the MIC is 0.5 µg/mL (≈ 2.45 µM). In test [9], the “Susceptible/resistant Mtb TIAS” value is listed as “R” and the MIC is 1 µg/mL (≈ 4.89 µM). In addition, in [10], the “Susceptible/resistant Mtb YAGY” value is given as “R” and the MIC is 4 µg/mL (≈ 19.6 µM). Moreover, in test [11], the “Susceptible/resistant Mtb TURZ” value is given as “R” and the MIC stood at 1 µg/mL (≈ 4.89 µM). In test [12], the “Susceptible/resistant Mtb IZAK” value is “S” and the MIC came out at 0.5 µg/mL (≈ 2.45 µM).
With `COc1c(N2C[C@@H]3CCCN[C@@H]3C2)c(F)cc2c(=O)c(C(=O)O)cn(C3CC3)c12` [moxifloxacin], in [7], the “Susceptible/resistant Mtb SORO” value is recorded as “S” and the MIC is 0.25 µg/mL (≈ 0.623 µM). Further, in test [9], the “Susceptible/resistant Mtb TIAS” value is given as “S” and the MIC came out at 0.25 µg/mL (≈ 0.623 µM). In addition, in [10], the “Susceptible/resistant Mtb YAGY” value is listed as “S” and the MIC is 0.25 µg/mL (≈ 0.623 µM). Further, in [11], the “Susceptible/resistant Mtb TURZ” value is “S” and the MIC turned out to be 0.25 µg/mL (≈ 0.623 µM).
`NC(=O)c1cnccn1` [pyrazinamide]: the “Susceptible/resistant Mtb SORO (MGIT)” value in test [7] (setting [14]) is listed as “S ^b)”. Also, in test [8], the “Susceptible/resistant Mtb MATI” value was “R” and the MIC is greater than 128 µg/mL. Further, in [9] (setting [14]), the “Susceptible/resistant Mtb TIAS (MGIT)” value is given as “S ^b)”. Further, in [10] (setting [14]), the “Susceptible/resistant Mtb YAGY (MGIT)” value was “R ^b)”. Further, the “Susceptible/resistant Mtb TURZ (MGIT)” value in test [11] (setting [14]) is given as “S ^b)”. For the same compound, in [12], the “Susceptible/resistant Mtb IZAK” value is “R” and the MIC was greater than 16 µg/mL.
On to `[H]/N=C(/N)N[C@H]1[C@H](O)[C@@H](O)[C@H](O[C@@H]2O[C@@H](C)[C@](O)(C=O)[C@H]2O[C@@H]2O[C@@H](CO)[C@H](O)[C@@H](O)[C@@H]2NC)[C@@H](N/C(N)=N\[H])[C@@H]1O` [streptomycin], for which, in test [7], the “Susceptible/resistant Mtb SORO” value is given as “R” and the MIC is 4 µg/mL (≈ 6.88 µM). Besides, in [8], the “Susceptible/resistant Mtb MATI” value was “R” and the MIC is greater than 16 µg/mL. In test [9], the “Susceptible/resistant Mtb TIAS” value is reported as “R” and the MIC was found to be 4 µg/mL (≈ 6.88 µM). In test [10], the “Susceptible/resistant Mtb YAGY” value is “R” and the MIC is greater than 16 µg/mL. For the same compound, in test [11], the “Susceptible/resistant Mtb TURZ” value is recorded as “R” and the MIC came to 16 µg/mL (≈ 27.5 µM). In addition, in test [12], the “Susceptible/resistant Mtb IZAK” value is on record as “R” and the MIC came to 4 µg/mL (≈ 6.88 µM).
